# Measurements taken from PubChem BioAssay AID192 (DTP/NCI, 2004).
# Where “and” joins values, the source holds several entries; their conditions need not be identical. Identical values can stand only once. Inconclusive results and toxic doses are left out.
# Tested on: BDF1 mice, B16 melanoma ip, median survival T/C
# Assay: NCI In Vivo Anticancer Drug Screen. Data for tumor model B16 Melanoma (intraperitoneal) in B6D2F1 (BDF1) mice
# Conditions: endpoint: median survival time, higher = longer survival
# Method in brief: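 Antitumor activity is assessed in mice bearing a transplanted tumor, with survival or tumor size compared against vehicle-dosed controls and expressed as T/C.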
# [1] = dose: 100.0 mg/kg/injection, schedule: Q01DX009 (ip), vehicle: saline with Tween-80
# [2] = dose: 400.0 mg/kg/injection, schedule: Q01DX009 (ip), vehicle: saline with Tween-80
# [3] = dose: 3.0 mg/kg/injection, schedule: Q01DX009 (ip), vehicle: Klucel (hydroxypropylcellulose) (HPC)
# [4] = dose: 100.0 mg/kg/injection, schedule: Q01DX009 (ip), vehicle: Klucel (hydroxypropylcellulose) (HPC)
# [5] = dose: 200.0 mg/kg/injection, schedule: Q01DX009 (ip), vehicle: Klucel (hydroxypropylcellulose) (HPC)
# [6] = dose: 400.0 mg/kg/injection, schedule: Q01DX009 (ip), vehicle: Klucel (hydroxypropylcellulose) (HPC)
# [7] = dose: 200.0 mg/kg/injection, schedule: Q01DX009 (ip), vehicle: saline with Tween-80
# [8] = dose: 1.0 mg/kg/injection, schedule: Q01DX009 (ip), vehicle: saline with Tween-80
# [9] = dose: 12.5 mg/kg/injection, schedule: Q01DX009 (ip), vehicle: saline with Tween-80
# [10] = dose: 25.0 mg/kg/injection, schedule: Q01DX009 (ip), vehicle: saline with Tween-80
# [11] = dose: 50.0 mg/kg/injection, schedule: Q01DX009 (ip), vehicle: saline with Tween-80
# [12] = dose: 3.13 mg/kg/injection, schedule: Q01DX009 (ip), vehicle: saline with Tween-80
# [13] = dose: 6.25 mg/kg/injection, schedule: Q01DX009 (ip), vehicle: saline with Tween-80
smiles,measurement,setting,value
O=C(O)C(/C=C/c1ccccc1)c1ccccc1 (stereo not drawn),T/C,[1],95 % of control
same,T/C,[2],105 % of control
C[n+]1c2ccccc2c(Nc2ccc(NS(=O)(=O)CCCCN=C(N)N)cc2)c2ccc(N)cc21,T/C,"dose: 0.75 mg/kg/injection, schedule: Q01DX009 (ip), vehicle: water",114 % of control
same,T/C,[3],170 % of control
same,T/C,"dose: 3.0 mg/kg/injection, schedule: Q01DX009 (ip), vehicle: water",171 % of control
same,T/C,"dose: 6.0 mg/kg/injection, schedule: Q01DX009 (ip), vehicle: Klucel (hydroxypropylcellulose) (HPC)",159 % of control
same,T/C,"dose: 6.0 mg/kg/injection, schedule: Q01DX009 (ip), vehicle: water",168 % of control and 176 % of control
same,T/C,"dose: 12.0 mg/kg/injection, schedule: Q01DX009 (ip), vehicle: water",184 % of control and 188 % of control
same,T/C,"dose: 12.5 mg/kg/injection, schedule: Q04DX003 (ip), vehicle: water",151 % of control
same,T/C,"dose: 25.0 mg/kg/injection, schedule: Q04DX003 (ip), vehicle: water",171 % of control
CC(=O)CC(C)=O.CC(=O)CC(C)=O.CC(=O)CC(C)=O.[V],T/C,"dose: 3.13 mg/kg/injection, schedule: Q01DX009 (ip), vehicle: saline",88 % of control
same,T/C,"dose: 6.25 mg/kg/injection, schedule: Q01DX009 (ip), vehicle: saline",89 % of control
Cc1ccc(S(=O)(=O)N2CCn3ncc(C#N)c32)cc1,T/C,"dose: 50.0 mg/kg/injection, schedule: Q01DX009 (ip), vehicle: Klucel (hydroxypropylcellulose) (HPC)",100 % of control
same,T/C,[4],103 % of control
same,T/C,[5],103 % of control
same,T/C,[6],96 % of control
N#Cc1ccccc1C(C#N)c1ccc([N+](=O)[O-])cc1 (stereo not drawn),T/C,[1],100 % of control
same,T/C,[7],90 % of control
CC1=C(/C=C/C(C)=C/C=C/C(C)=C/C(=O)O)C(C)(C)CCC1,T/C,"dose: 0.5 mg/kg/injection, schedule: Q01DX009 (ip), vehicle: saline with Tween-80",98 % of control
same,T/C,[8],90 % of control
same,T/C,"dose: 8.0 mg/kg/injection, schedule: Q01DX009 (ip), vehicle: saline with Tween-80",92 % of control
same,T/C,"dose: 16.0 mg/kg/injection, schedule: Q01DX009 (ip), vehicle: saline with Tween-80",86 % of control and 88 % of control (2×)
same,T/C,"dose: 32.0 mg/kg/injection, schedule: Q01DX009 (ip), vehicle: saline with Tween-80",86 % of control and 94 % of control
same,T/C,"dose: 64.0 mg/kg/injection, schedule: Q01DX009 (ip), vehicle: saline with Tween-80",93 % of control
CC(=O)Nc1ccc2c(c1)Cc1cc(NC=O)ccc1-2,T/C,"dose: 0.75 mg/kg/injection, schedule: Q01DX009 (ip), vehicle: Klucel (hydroxypropylcellulose) (HPC)",88 % of control
same,T/C,"dose: 1.5 mg/kg/injection, schedule: Q01DX009 (ip), vehicle: Klucel (hydroxypropylcellulose) (HPC)",93 % of control
same,T/C,[3],90 % of control
Cc1noc2nccnc12,T/C,[9],92 % of control
same,T/C,[10],95 % of control
same,T/C,[11],88 % of control
O=C(O)O.O=C(O)O.O=C(O)O.[Co],T/C,"dose: 25.0 mg/kg/injection, schedule: Q04DX003 (ip), vehicle: saline with Tween-80",88 % of control
same,T/C,"dose: 50.0 mg/kg/injection, schedule: Q04DX003 (ip), vehicle: saline with Tween-80",91 % of control
CSc1nc(N)nc2c1ncn2C1OC(CO)C(O)C1O (stereo not drawn),T/C,"dose: 100.0 mg/kg/injection, schedule: Q01DX009 (ip), vehicle: suspension in saline",115 % of control
same,T/C,"dose: 200.0 mg/kg/injection, schedule: Q01DX009 (ip), vehicle: suspension in saline",110 % of control
Cc1cccc(NC(=O)NC(C)C)c1C,T/C,[4],100 % of control
same,T/C,"dose: 100.0 mg/kg/injection, schedule: Q04DX003 (ip), vehicle: Klucel (hydroxypropylcellulose) (HPC)",103 % of control
same,T/C,[5],96 % of control
same,T/C,"dose: 200.0 mg/kg/injection, schedule: Q04DX003 (ip), vehicle: Klucel (hydroxypropylcellulose) (HPC)",107 % of control
same,T/C,[6],93 % of control
same,T/C,"dose: 400.0 mg/kg/injection, schedule: Q04DX003 (ip), vehicle: Klucel (hydroxypropylcellulose) (HPC)",100 % of control
c1ccc2c(NCCCCCCNc3c4ccccc4nc4ccccc34)c3ccccc3nc2c1,T/C,"dose: 1.25 mg/kg/injection, schedule: Q01DX009 (ip), vehicle: Klucel (hydroxypropylcellulose) (HPC)",124 % of control
same,T/C,"dose: 10.0 mg/kg/injection, schedule: Q01DX009 (ip), vehicle: Klucel (hydroxypropylcellulose) (HPC)",174 % of control
same,T/C,"dose: 20.0 mg/kg/injection, schedule: Q01DX009 (ip), vehicle: Klucel (hydroxypropylcellulose) (HPC)",179 % of control
O=C(Nc1ccc2ccccc2c1)c1ccc(Cl)cc1Cl,T/C,"dose: 100.0 mg/kg/injection, schedule: Q04DX003 (ip), vehicle: saline with Tween-80",88 % of control
same,T/C,"dose: 200.0 mg/kg/injection, schedule: Q04DX003 (ip), vehicle: saline with Tween-80",91 % of control
same,T/C,"dose: 400.0 mg/kg/injection, schedule: Q04DX003 (ip), vehicle: saline with Tween-80",94 % of control
CCC(CC)N=C(N)N,T/C,"dose: 25.0 mg/kg/injection, schedule: Q01DX009 (ip), vehicle: saline",101 % of control
same,T/C,"dose: 50.0 mg/kg/injection, schedule: Q01DX009 (ip), vehicle: saline",98 % of control
same,T/C,"dose: 100.0 mg/kg/injection, schedule: Q01DX009 (ip), vehicle: saline",112 % of control
C=C1N(C)c2ccccc2C1(C)C,T/C,[8],104 % of control
same,T/C,"dose: 2.0 mg/kg/injection, schedule: Q01DX009 (ip), vehicle: saline with Tween-80",100 % of control
same,T/C,"dose: 4.0 mg/kg/injection, schedule: Q01DX009 (ip), vehicle: saline with Tween-80",98 % of control
same,T/C,"dose: 13.0 mg/kg/injection, schedule: Q01DX009 (ip), vehicle: saline with Tween-80",117 % of control
same,T/C,"dose: 19.0 mg/kg/injection, schedule: Q01DX009 (ip), vehicle: saline with Tween-80",98 % of control
same,T/C,"dose: 29.0 mg/kg/injection, schedule: Q01DX009 (ip), vehicle: saline with Tween-80",104 % of control
same,T/C,"dose: 45.0 mg/kg/injection, schedule: Q01DX009 (ip), vehicle: saline with Tween-80",98 % of control
Cc1c2ccncc2c(C)c2c1[nH]c1ccccc12,T/C,"dose: 1.25 mg/kg/injection, schedule: Q01DX009 (ip), vehicle: saline",109 % of control
same,T/C,"dose: 1.25 mg/kg/injection, schedule: Q01DX009 (ip), vehicle: water",102 % of control
same,T/C,"dose: 2.5 mg/kg/injection, schedule: Q01DX009 (ip), vehicle: saline",113 % of control
same,T/C,"dose: 2.5 mg/kg/injection, schedule: Q01DX009 (ip), vehicle: water",103 % of control and 110 % of control
same,T/C,"dose: 5.0 mg/kg/injection, schedule: Q01DX009 (ip), vehicle: saline",120 % of control
same,T/C,"dose: 5.0 mg/kg/injection, schedule: Q01DX009 (ip), vehicle: water",110 % of control and 114 % of control
same,T/C,"dose: 8.0 mg/kg/injection, schedule: Q01DX005 (iv), vehicle: saline with Tween-80",106 % of control
same,T/C,"dose: 12.5 mg/kg/injection, schedule: Q04DX003 (ip), vehicle: distilled water + Tween-80",117 % of control and 121 % of control
same,T/C,"dose: 16.0 mg/kg/injection, schedule: Q01DX005 (ip), vehicle: saline with Tween-80",171 % of control
same,T/C,"dose: 16.0 mg/kg/injection, schedule: Q01DX005 (iv), vehicle: saline with Tween-80",110 % of control
same,T/C,"dose: 16.0 mg/kg/injection, schedule: Q01DX005 (oral), vehicle: saline with Tween-80",110 % of control
same,T/C,"dose: 25.0 mg/kg/injection, schedule: Q04DX003 (ip), vehicle: distilled water + Tween-80",119 % of control
same,T/C,"dose: 32.0 mg/kg/injection, schedule: Q01DX005 (ip), vehicle: saline with Tween-80",191 % of control
same,T/C,"dose: 32.0 mg/kg/injection, schedule: Q01DX005 (oral), vehicle: saline with Tween-80",108 % of control
same,T/C,"dose: 50.0 mg/kg/injection, schedule: Q04DX003 (ip), vehicle: Klucel (hydroxypropylcellulose) (HPC)",154 % of control
same,T/C,"dose: 64.0 mg/kg/injection, schedule: Q01DX005 (oral), vehicle: saline with Tween-80",117 % of control
same,T/C,"dose: 100.0 mg/kg/injection, schedule: Q04DX003 (ip), vehicle: distilled water + Tween-80",153 % of control
CC(=O)NC(Cc1ccc(N(CCCl)CCCl)cc1)C(=O)O (stereo not drawn),T/C,[12],109 % of control
same,T/C,[13],117 % of control
same,T/C,[10],113 % of control
O=C(/C(=N\Nc1ccc([N+](=O)[O-])cc1)c1ccccc1)c1ccccc1,T/C,[12],100 % of control
same,T/C,[13],95 % of control
same,T/C,[9],90 % of control and 93 % of control
same,T/C,[11],90 % of control
NC(=O)NC1CCCC1,T/C,[1],106 % of control
same,T/C,[7],112 % of control
same,T/C,[2],102 % of control
